Experimental data from the NIST ThermoML archive (doi:10.1016/j.fluid.2016.04.009).

Columns and labels:
[1] = refractive index (Na D-line) (dimensionless); settings: 101.33 kPa, Liquid, Standard Abbe refractometry
[2] = for viscosity / mass density: 101.33 kPa; for viscosity / mass density / surface tension liquid-gas: Liquid; for viscosity: Concentric cylinders viscometry; for mass density: Vibrating tube method; for surface tension liquid-gas: Pendant drop shape; for Normal melting temperature: Crystal, DTA
[3] = molar heat capacity at constant pressure; settings: 298.15 K; 101.33 kPa; Liquid; Drop calorimetry
[4] = Molar enthalpy of transition or fusion; settings: Crystal; DSC

CCCC[n+]1cccc(C)c1.O=S(=O)([N-]S(=O)(=O)C(F)(F)F)C(F)(F)F
Settings	mass density, [2] [kg/m3]	refractive index, [1]	viscosity, [2] [mPa·s]
288.15 K	–	1.44894	–
293.15 K	1418.7	1.44737	84.2
298.15 K	1414.1	1.4458	65.74
303.15 K	1409.4	1.44423	52.39
308.15 K	1404.8	1.44266	42.46
313.15 K	1400.2	1.44109	34.93
318.15 K	1395.6	1.43952	29.13
323.15 K	1391.1	–	24.59
328.15 K	1386.6	–	20.97
333.15 K	1382	–	18.1
338.15 K	1377.6	–	15.71
343.15 K	1373.1	–	13.77
348.15 K	1368.7	–	12.15
353.15 K	1364.3	–	10.82
358.15 K	1359.9	–	9.66
363.15 K	1355.6	–	8.69

Settings	molar heat capacity at constant pressure [J/K/mol]
[3]	578.01

CC(C)C[N+]1(C)CCCCC1.O=S(=O)([N-]S(=O)(=O)C(F)(F)F)C(F)(F)F
Settings	mass density [kg/m3]	refractive index	surface tension liquid-gas [mN/m]	viscosity [mPa·s]
[1], 288.15 K	–	1.43387	–	–
[1], 293.15 K	–	1.43243	–	–
[1], 298.15 K	–	1.43099	–	–
[1], 303.15 K	–	1.42955	–	–
[1], 308.15 K	–	1.42812	–	–
[1], 313.15 K	–	1.42668	–	–
[1], 318.15 K	–	1.42524	–	–
[1], 323.15 K	–	1.42381	–	–
[1], 328.15 K	–	1.42237	–	–
[1], 333.15 K	–	1.42093	–	–
[2], 303.15 K	1392.9	–	–	125.12
[2], 308.15 K	1388.6	–	–	96.4
[2], 308.2 K	–	–	33.9	–
[2], 313.15 K	1384.4	–	–	76.03
[2], 318.15 K	1380.1	–	–	60.67
[2], 318.2 K	–	–	33.45	–
[2], 323.15 K	1375.9	–	–	49.34
[2], 328.15 K	1371.7	–	–	40.71
[2], 328.2 K	–	–	33.01	–
[2], 333.15 K	1367.5	–	–	34.11
[2], 338.15 K	1363.3	–	–	28.76
[2], 338.2 K	–	–	32.56	–
[2], 343.15 K	1359.1	–	–	24.57
[2], 343.2 K	–	–	32.34	–
[2], 348.15 K	1355	–	–	21.18
[2], 353.15 K	1350.8	–	–	18.47
[2], 358.15 K	1346.7	–	–	16.14
[2], 363.15 K	1342.7	–	–	14.25

Settings	Molar enthalpy of transition or fusion [kcal/mol]	Normal melting temperature [°C]
[2]	–	14.8
[4]	0.574	–

CCCC[N+]1(C)CCCC1.O=S(=O)([N-]S(=O)(=O)C(F)(F)F)C(F)(F)F
Settings	mass density, [2] [kg/m3]	refractive index, [1]	viscosity, [2] [mPa·s]
288.15 K	–	1.42612	–
293.15 K	1406.1	1.42466	101.71
298.15 K	1401.6	1.42319	79.57
303.15 K	1397.2	1.42173	63.64
308.15 K	1392.7	1.42027	51.71
313.15 K	1388.3	1.4188	42.67
318.15 K	1383.8	1.41734	35.6
323.15 K	1379.4	–	30.07
328.15 K	1375.1	–	25.66
333.15 K	1370.7	–	22.16
338.15 K	1366.4	–	19.21
343.15 K	1362.1	–	16.83
348.15 K	1357.8	–	14.84
353.15 K	1353.6	–	13.21
358.15 K	1349.3	–	11.77
363.15 K	1345.1	–	10.57

Settings	Molar enthalpy of transition or fusion [kcal/mol]	Normal melting temperature [°C]	molar heat capacity at constant pressure [J/K/mol]
[2]	–	-13.4	–
[3]	–	–	584.19
[4]	4.83	–	–

CCCCCC[n+]1ccn(C)c1.O=S(=O)([N-]S(=O)(=O)C(F)(F)F)C(F)(F)F
Settings	Normal melting temperature [°C]
[2]	-10.5

CC(C)Cn1cc[n+](C)c1.O=S(=O)([N-]S(=O)(=O)C(F)(F)F)C(F)(F)F
Settings	mass density [kg/m3]	refractive index	surface tension liquid-gas [mN/m]	viscosity [mPa·s]
[1], 288.15 K	–	1.4301	–	–
[1], 293.15 K	–	1.42854	–	–
[1], 298.15 K	–	1.42699	–	–
[1], 303.15 K	–	1.42543	–	–
[1], 308.15 K	–	1.42387	–	–
[1], 313.15 K	–	1.42232	–	–
[1], 318.15 K	–	1.42076	–	–
[2], 293.15 K	1442.1	–	–	107.35
[2], 298.15 K	1437.2	–	–	81.44
[2], 298.2 K	–	–	32.72	–
[2], 303.15 K	1432.4	–	–	63.36
[2], 308.15 K	1427.7	–	–	50.3
[2], 308.2 K	–	–	32.26	–
[2], 313.15 K	1422.9	–	–	40.69
[2], 318.15 K	1418.2	–	–	33.4
[2], 318.2 K	–	–	31.81	–
[2], 323.15 K	1413.5	–	–	27.81
[2], 328.15 K	1408.8	–	–	23.46
[2], 328.2 K	–	–	31.35	–
[2], 333.15 K	1404.2	–	–	20.05
[2], 338.15 K	1399.5	–	–	17.24
[2], 338.2 K	–	–	30.9	–
[2], 343.15 K	1394.9	–	–	14.99
[2], 343.2 K	–	–	30.67	–
[2], 348.15 K	1390.3	–	–	13.14
[2], 353.15 K	1385.7	–	–	11.63
[2], 358.15 K	1381.1	–	–	10.31
[2], 363.15 K	1376.6	–	–	9.22

Settings	molar heat capacity at constant pressure [J/K/mol]
[3]	565.31

CCCC[N+]1(C)CCCCC1.O=S(=O)([N-]S(=O)(=O)C(F)(F)F)C(F)(F)F
Settings	mass density [kg/m3]	refractive index	surface tension liquid-gas [mN/m]	viscosity [mPa·s]
[1], 288.15 K	–	1.43251	–	–
[1], 293.15 K	–	1.43105	–	–
[1], 298.15 K	–	1.42959	–	–
[1], 303.15 K	–	1.42813	–	–
[1], 308.15 K	–	1.42667	–	–
[1], 313.15 K	–	1.42521	–	–
[1], 318.15 K	–	1.42375	–	–
[2], 293.15 K	1386.9	–	–	261.28
[2], 298.15 K	1382.5	–	–	189.11
[2], 298.2 K	–	–	34.14	–
[2], 303.15 K	1378.1	–	–	141.44
[2], 308.15 K	1373.8	–	–	108.27
[2], 308.2 K	–	–	33.65	–
[2], 313.15 K	1369.5	–	–	84.87
[2], 318.15 K	1365.2	–	–	67.24
[2], 318.2 K	–	–	33.17	–
[2], 323.15 K	1361	–	–	54.34
[2], 328.15 K	1356.7	–	–	44.55
[2], 328.2 K	–	–	32.68	–
[2], 333.15 K	1352.5	–	–	37.09
[2], 338.15 K	1348.3	–	–	31.09
[2], 338.2 K	–	–	32.2	–
[2], 343.15 K	1344.1	–	–	26.41
[2], 343.2 K	–	–	31.96	–
[2], 348.15 K	1340	–	–	22.65
[2], 353.15 K	1335.9	–	–	19.65
[2], 358.15 K	1331.8	–	–	17.09
[2], 363.15 K	1327.7	–	–	15.01

Settings	molar heat capacity at constant pressure [J/K/mol]
[3]	607.52

CC(C)C[N+]1(C)CCCC1.O=S(=O)([N-]S(=O)(=O)C(F)(F)F)C(F)(F)F
Settings	mass density [kg/m3]	refractive index	surface tension liquid-gas [mN/m]	viscosity [mPa·s]
[1], 288.15 K	–	1.42708	–	–
[1], 293.15 K	–	1.42563	–	–
[1], 298.15 K	–	1.42418	–	–
[1], 303.15 K	–	1.42273	–	–
[1], 308.15 K	–	1.42127	–	–
[1], 313.15 K	–	1.41982	–	–
[1], 318.15 K	–	1.41837	–	–
[2], 293.15 K	1404.5	–	–	83.61
[2], 298.15 K	1400	–	–	66.29
[2], 298.2 K	–	–	33.54	–
[2], 303.15 K	1395.6	–	–	53.53
[2], 308.15 K	1391.2	–	–	43.91
[2], 308.2 K	–	–	33.1	–
[2], 313.15 K	1386.8	–	–	36.52
[2], 318.15 K	1382.4	–	–	30.75
[2], 318.2 K	–	–	32.65	–
[2], 323.15 K	1378	–	–	26.18
[2], 328.15 K	1373.7	–	–	22.52
[2], 328.2 K	–	–	32.2	–
[2], 333.15 K	1369.4	–	–	19.57
[2], 338.15 K	1365.2	–	–	17.09
[2], 338.2 K	–	–	31.75	–
[2], 343.15 K	1360.9	–	–	15.06
[2], 343.2 K	–	–	31.53	–
[2], 348.15 K	1356.7	–	–	13.36
[2], 353.15 K	1352.5	–	–	11.95
[2], 358.15 K	1348.3	–	–	10.7
[2], 363.15 K	1344.1	–	–	9.65

Settings	Molar enthalpy of transition or fusion [kcal/mol]	Normal melting temperature [°C]	molar heat capacity at constant pressure [J/K/mol]
[2]	–	-0.2	–
[3]	–	–	582.08
[4]	3.13	–	–

CCCC[n+]1ccn(C)c1.O=S(=O)([N-]S(=O)(=O)C(F)(F)F)C(F)(F)F
[1]
Settings	refractive index
288.15 K	1.43015
293.15 K	1.4286
298.15 K	1.42705
303.15 K	1.4255
308.15 K	1.42396
313.15 K	1.42241
318.15 K	1.42086

Settings	molar heat capacity at constant pressure [J/K/mol]
[3]	565.73

Cc1ccc[n+](CC(C)C)c1.O=S(=O)([N-]S(=O)(=O)C(F)(F)F)C(F)(F)F
Settings	mass density [kg/m3]	refractive index	surface tension liquid-gas [mN/m]	viscosity [mPa·s]
[1], 288.15 K	–	1.44902	–	–
[1], 293.15 K	–	1.44743	–	–
[1], 298.15 K	–	1.44585	–	–
[1], 303.15 K	–	1.44426	–	–
[1], 308.15 K	–	1.44268	–	–
[1], 313.15 K	–	1.44109	–	–
[1], 318.15 K	–	1.43951	–	–
[2], 293.15 K	1417.2	–	–	135.42
[2], 298.15 K	1412.6	–	–	100.1
[2], 298.2 K	–	–	33.45	–
[2], 303.15 K	1408	–	–	76.34
[2], 308.15 K	1403.4	–	–	59.56
[2], 308.2 K	–	–	32.99	–
[2], 313.15 K	1398.8	–	–	47.48
[2], 318.15 K	1394.2	–	–	38.42
[2], 318.2 K	–	–	32.54	–
[2], 323.15 K	1389.7	–	–	31.63
[2], 328.15 K	1385.1	–	–	26.4
[2], 328.2 K	–	–	32.08	–
[2], 333.15 K	1380.6	–	–	22.36
[2], 338.15 K	1376.1	–	–	19.08
[2], 338.2 K	–	–	31.63	–
[2], 343.15 K	1371.6	–	–	16.47
[2], 343.2 K	–	–	31.4	–
[2], 348.15 K	1367.2	–	–	14.35
[2], 353.15 K	1362.8	–	–	12.63
[2], 358.15 K	1358.4	–	–	11.14
[2], 363.15 K	1354.1	–	–	9.93

Settings	molar heat capacity at constant pressure [J/K/mol]
[3]	578.87
